Test results taken from patent publication US11267800B2, “Cyclohexyl acid triazole azines as LPA antagonists” (BRISTOL-MYERS SQUIBB COMPANY, priority 2017, dated 2022).

target: T1, human LPA1 (Homo sapiens, UniProt Q92633); assay: LPA1 functional antagonist assay (calcium flux); type: cell-based; settings: CHO cells overexpressing human LPA1; inhibition of calcium flux induced by 10 nM LPA; read-out: hLPA1 IC50
T1 construct: expressed in transfected cells; host or cells: Chinese hamster ovary (CHO) cells
T1 sequence (Q92633 whole entry): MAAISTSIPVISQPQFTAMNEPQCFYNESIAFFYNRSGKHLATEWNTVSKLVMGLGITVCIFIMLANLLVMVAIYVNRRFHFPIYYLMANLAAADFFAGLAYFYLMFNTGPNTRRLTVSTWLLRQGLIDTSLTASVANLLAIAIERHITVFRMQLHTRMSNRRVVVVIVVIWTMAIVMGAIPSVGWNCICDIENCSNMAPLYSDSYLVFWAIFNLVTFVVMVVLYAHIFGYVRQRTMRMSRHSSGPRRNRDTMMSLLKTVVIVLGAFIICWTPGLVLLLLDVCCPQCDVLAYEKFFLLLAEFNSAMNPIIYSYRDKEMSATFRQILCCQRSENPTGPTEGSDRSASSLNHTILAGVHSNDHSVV
In short: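 Dye-loaded CHO cells overexpressing human LPA1 (30 min, 37 °C) were preincubated 20 min at room temperature with compound (0.08 nM–5 μM; 0.5% DMSO; HBSS, 20 mM HEPES, 0.1% fatty-acid-free BSA), then stimulated with 10 nM LPA. IC50 is the concentration inhibiting 50% of LPA-induced calcium flux, from a 4-parameter logistic fit.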

| Compound | IC50 |
| --- | --- |
| CSc1cc(NCc2c(-c3ccc(O[C@H]4CCC[C@H](C(=O)O)C4)c(C)n3)nnn2C)ncn1 [Example 364] | 0.098 µM |
| Cc1nc(-c2nnn(C)c2COc2cc(-n3cccn3)ncn2)ccc1O[C@H]1CCC[C@H](C(=O)O)C1 [Example 369] | 0.0084 µM |
| Cc1nc(-c2nnn(C)c2Cc2cc(-c3ccccc3)ccn2)ccc1O[C@H]1CCC[C@H](C(=O)O)C1 [Example 377] | 0.0072 µM |
| CCCCc1ncnc(N(C)Cc2c(-c3ccc(O[C@H]4CCC[C@H](C(=O)O)C4)c(C)n3)nnn2C)n1 [Example 381] | 0.038 µM |
| CCCCc1cncc(NCc2c(-c3ccc(O[C@H]4CCC[C@H](C(=O)O)C4)c(C)n3)nnn2C)n1 [Example 382] | 0.012 µM |
| CCOc1ccnc(NCc2c(-c3nc(C)c(O[C@H]4CCC[C@H](C(=O)O)C4)cc3F)nnn2C)n1 [Example 384] | 0.048 µM |
| CCc1nc(-c2nnn(C)c2CNc2nccc(C(C)(C)C)n2)ccc1O[C@H]1CCC[C@H](C(=O)O)C1 [Example 385] | 0.041 µM |
| CCc1nc(-c2nnn(C)c2CNc2nccc(C3CCC3)n2)ccc1O[C@H]1CCC[C@H](C(=O)O)C1 [Example 387] | 0.024 µM |
| CCc1nc(-c2nnn(C)c2CNc2nccc(C(C)C)n2)ccc1O[C@H]1CCC[C@H](C(=O)O)C1 [Example 389] | 0.0093 µM |
| CCc1nc(-c2nnn(C)c2CNc2nccc(OC3CC3)n2)ccc1O[C@H]1CCC[C@H](C(=O)O)C1 [Example 390] | 0.017 µM |
| CCOc1ccnc(NCc2c(-c3ccc(O[C@H]4CCC[C@H](C(=O)O)C4)c(CC)n3)nnn2C)n1 [Example 393] | 0.015 µM |
| Cc1nc(-c2nnn(C)c2Nc2nccc(OCCC(F)(F)F)n2)ccc1O[C@H]1CCC[C@H](C(=O)O)C1 [Example 394] | 0.103 µM |
| Cc1nc(-c2nnn(C)c2CNc2cccc(Cc3ccccc3)n2)ccc1O[C@H]1CCC[C@H](C(=O)O)C1 [Example 397] | 1.03 µM |
| Cc1nc(-c2nnn(C)c2CCNc2nccc(C(C)C)n2)ccc1O[C@H]1CCC[C@H](C(=O)O)C1 [Example 401] | 1.59 µM |
| CCOc1cc(C2CCC2)nc(NCc2c(-c3ccc(O[C@H]4CCC[C@H](C(=O)O)C4)c(C)n3)nnn2C)n1 [Example 402] | 0.036 µM |
| Cn1nnc(-c2ccc(O[C@H]3CCC[C@H](C(=O)O)C3)cn2)c1CNc1ccnc(OCC2(C)CC2)n1 [Example 403] | 2.31 µM |
| Cn1nnc(-c2ccc(O[C@H]3CCC[C@H](C(=O)O)C3)cn2)c1COc1nccc(C(F)(F)F)n1 [Example 404] | 0.173 µM |
| Cc1nc(-c2nnn(C)c2COc2cc(-n3ccnn3)ncn2)ccc1O[C@H]1CCC[C@H](C(=O)O)C1 [Example 405] | 0.129 µM |
| CC(C)c1ccnc(NCc2c(-c3ccc(O[C@H]4CCC[C@H](C(=O)O)C4)c(C#N)n3)nnn2C)n1 [Example 406] | 0.018 µM |

Second part, the molecule after the results:

| IC50 | Compound |
| --- | --- |
| 0.022 µM | CSc1cc(OCc2c(-c3ccc(O[C@H]4CCC[C@H](C(=O)O)C4)c(C)n3)nnn2C)ncn1 [Example 363] |
| 0.117 µM | Cc1nc(-c2nnn(C)c2CNc2cc(C(F)F)ncn2)ccc1O[C@H]1CCC[C@H](C(=O)O)C1 [Example 365] |
| 0.135 µM | Cc1nc(-c2nnn(C)c2CNc2nccc(C(F)F)n2)ccc1O[C@H]1CCC[C@H](C(=O)O)C1 [Example 366] |
| 0.0079 µM | CSc1ccnc(OCc2c(-c3ccc(O[C@H]4CCC[C@H](C(=O)O)C4)c(C)n3)nnn2C)n1 [Example 367] |
| 0.079 µM | Cn1nnc(-c2ccc(O[C@H]3CCC[C@H](C(=O)O)C3)cn2)c1COc1cc(C(F)(F)F)ncn1 [Example 368] |
| 0.021 µM | Cc1nc(-c2nnn(C)c2COc2nccc(C(C)(F)F)n2)ccc1O[C@H]1CCC[C@H](C(=O)O)C1 [Example 370] |
| 0.016 µM | Cc1nc(-c2nnn(C)c2CNc2cc(C3CC3)ccn2)ccc1O[C@H]1CCC[C@H](C(=O)O)C1 [Example 371, (1S,3S)-3-((6-(5-(((4-cyclopropylpyridin-2-yl)amino)methyl)-1-methyl-1H-1,2,3-triazol-4-yl)-2-methylpyridin-3-yl)oxy)cyclohexane-1-carboxylic acid] |
| 0.199 µM | Cc1nc(-c2nnn(C)c2CNc2cc(-c3ccccc3)c(Cl)nn2)ccc1O[C@H]1CCC[C@H](C(=O)O)C1 [Example 372, (1S,3S)-3-((6-(5-(((6-chloro-5-phenylpyridazin-3-yl)amino)methyl)-1-methyl-1H-1,2,3-triazol-4-yl)-2-methylpyridin-3-yl)oxy)cyclohexane-1-carboxylic acid] |
| 0.08 µM | Cc1nc(-c2nnn(C)c2CNc2cc(C3CC3)ncn2)ccc1O[C@H]1CCC[C@H](C(=O)O)C1 [Example 373] |
| 0.09 µM | Cc1nc(-c2nnn(C)c2CNc2ccnc(C3CC3)n2)ccc1O[C@H]1CCC[C@H](C(=O)O)C1 [Example 374] |
| 0.11 µM | Cc1nc(-c2nnn(C)c2Cc2cccc(-c3ccccc3)n2)ccc1O[C@H]1CCC[C@H](C(=O)O)C1 [Example 376] |
| 0.0249 µM | Cc1nc(-c2nnn(C)c2Cc2nccc(-c3ccccc3)n2)ccc1O[C@H]1CCC[C@H](C(=O)O)C1 [Example 378] |
| 0.093 µM | Cc1nc(-c2nnn(C)c2CN(C)c2ncnc(C3CC3)n2)ccc1O[C@H]1CCC[C@H](C(=O)O)C1 [Example 379, (1S,3S)-3-{[6-(5-{[(4-cyclopropyl-1,3,5-triazin-2-yl)(methyl)amino]methyl}-1-methyl-1H-1,2,3-triazol-4-yl)-2-methylpyridin-3-yl]oxy}cyclohexane-1-carboxylic acid] |
| 0.094 µM | CCCc1cncc(NCc2c(-c3ccc(O[C@H]4CCC[C@H](C(=O)O)C4)c(C)n3)nnn2C)n1 [Example 380, (1S,3S)-3-((2-Methyl-6-(1-methyl-5-(((6-propylpyrazin-2-yl)amino)methyl)-1H-1,2,3-triazol-4-yl)pyridin-3-yl)oxy)cyclohexane-1-carboxylic acid] |
| 0.227 µM | Cc1nc(-c2nnn(C)c2CNc2nccc(OC3CC3)n2)c(F)cc1O[C@H]1CCC[C@H](C(=O)O)C1 [Example 383] |
| 0.46 µM | CCc1nc(-c2nnn(C)c2CNc2nccc(OC)n2)ccc1O[C@H]1CCC[C@H](C(=O)O)C1 [Example 386] |
| 0.045 µM | CCc1nc(-c2nnn(C)c2CNc2nccc(C3CC3)n2)ccc1O[C@H]1CCC[C@H](C(=O)O)C1 [Example 388] |
| 0.208 µM | CCc1nc(-c2nnn(C)c2CNc2ccnc(OC3CC3)n2)ccc1O[C@H]1CCC[C@H](C(=O)O)C1 [Example 391] |
| 0.015 µM | CCCOc1ccnc(NCc2c(-c3ccc(O[C@H]4CCC[C@H](C(=O)O)C4)c(CC)n3)nnn2C)n1 [Example 392] |
| 0.051 µM | Cc1nc(-c2nnn(C)c2Nc2nccc(OCCCF)n2)ccc1O[C@H]1CCC[C@H](C(=O)O)C1 [Example 395] |
| 0.042 µM | Cc1nc(-c2nnn(C)c2Nc2nccc(OCC(F)(F)F)n2)ccc1O[C@H]1CCC[C@H](C(=O)O)C1 [Example 396] |
| 0.027 µM | CCCc1cccc(NCc2c(-c3ccc(O[C@H]4CCC[C@H](C(=O)O)C4)c(C)n3)nnn2C)n1 [Example 398] |
| 0.531 µM | Cc1nc(-c2nnn(C)c2CNc2cccc(C3CC3)n2)ccc1O[C@H]1CCC[C@H](C(=O)O)C1 [Example 399] |
| 0.679 µM | Cc1nc(-c2nnn(C)c2CCNc2nccc(C(C)(C)C)n2)ccc1O[C@H]1CCC[C@H](C(=O)O)C1 [Example 400, (1S,3S)-3-((6-(5-(2-((4-(tert-butyl)pyrimidin-2-yl)amino)ethyl)-1-methyl-1H-1,2,3-triazol-4-yl)-2-methylpyridin-3-yl)oxy)cyclohexane-1-carboxylic acid] |
